This is an account of results in PubChem BioAssay AID850 (SRMLSC, 2007).

The nature of test [1]: yeast lifespan-shortening chemical project counter-assay, dose-response inhibition of growth under permissive conditions (AID 850).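 Note: growth read as optical density after one day of incubation.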 The note with it: Saccharomyces cerevisiae growth inhibition, permissive control, measured here: maximum growth inhibition, stronger effect = higher value.
The subject of test [2] is Saccharomyces cerevisiae growth inhibition, permissive control. The test is described as above.

Calls of active or inactive are those of the source. The rule behind the calls is not given here.

One may read the inhibition as the percentage by which the read-out fell short of the control. One may read the IC50 as the concentration that inhibits the measured activity by half. `CN1CCc2cc3c(c4c2[C@H]1[C@H](O)c1ccccc1-4)OCO3` registered an inhibition in test [1] (at 50 µM) of 11.1%. In test [2], the IC50 was > 100 µM (inactive).

For the compound `CCCCCCCCCCn1c2c(c(=N)c3c1CCC3)CCC2`, the inhibition in test [1] (at 50 µM) stood at 100%. The IC50 in test [2] was 12 µM.

As to `CSC1=NSC2=NC(=O)/C(=C/c3coc4ccccc4c3=O)C(=N)N12`, the inhibition in test [1] (at 50 µM) was 28.3%. Besides, in test [2], the IC50 was > 100 µM (inactive).

Take `O=C1OCC(CO)(CO)N=C1NNc1ccc(Cl)c(Cl)c1`: the inhibition in test [1] (at 50 µM) was 98.6%. Besides, the IC50 in test [2] is 1.6 µM.

In turn, `CC(Oc1ccc(Cl)cc1Cl)C(=O)NC1=NN(c2ccccc2)C(=O)C1` (stereo not given) yielded an inhibition in test [1] (at 50 µM) of 98.6%. The IC50 in test [2] was 16.6 µM.

`COc1ccccc1OCCN1CSC(=S)N(C)C1` gave an inhibition in test [1] (at 50 µM) of 82.4%. Besides, the IC50 in test [2] is 17.2 µM.

In test [1] (at 50 µM), `Cc1ccc(N/N=C/c2cccnc2)cc1` displayed an inhibition of 97%. Moreover, the IC50 in test [2] was 13 µM.

`Cc1ccc(C(C[N+](=O)[O-])n2nc(C)cc2C)cc1` (stereo not given): in test [1] (at 50 µM), the inhibition is 99.2%. Besides, in test [2], the IC50 is 13 µM.

For the compound `CCOC(=O)c1c(NC(=S)Nc2ccc(Cl)cc2)sc2c1CCN(C)C2`, the inhibition in test [1] (at 25 µM) was found to be 99.8%. In addition, the IC50 in test [2] is 8.2 µM.

In test [1] (at 0.781 µM), `CC1CCCC2(C1)NC(=S)c1c(sc3c1CCCC3)N2` (stereo not given) yielded an inhibition of 10.2%. The IC50 in test [2] is > 100 µM (inactive).

Regarding `CN1CSC(=S)N(C)C1`, the inhibition in test [1] (at 50 µM) was 97%. Also, the IC50 in test [2] was 12.6 µM.

In test [1] (at 50 µM), `Cc1cc(C)c2c(N=NN3CCOCC3)[nH]nc2n1` showed an inhibition of 5.41%. The IC50 in test [2] was > 100 µM (inactive).

Take `S=C(NCC1CCCCC1)Nc1ccc(Oc2ccccc2)cc1`: the inhibition in test [1] (at 0.781 µM) turned out to be 7.72%. In test [2], the IC50 was > 100 µM (inactive).

On to `O=C(Oc1c(Cl)cc(Cl)c2cccnc12)c1cccc([N+](=O)[O-])c1`, for which, in test [1] (at 12.5 µM), the inhibition is 99.4%. For the same compound, in test [2], the IC50 was 1.44 µM.

Regarding `Cc1nc2ccccc2c2nc3ccccc3n12`, the inhibition in test [1] (at 50 µM) stood at 63.9%. Besides, the IC50 in test [2] was 38.5 µM.

In turn, `Clc1ccc(COC(Cn2ccnc2)c2ccc(Cl)cc2Cl)cc1` (stereo not given) returned an inhibition in test [1] (at 50 µM) of 100%. Further, in test [2], the IC50 was 0.705 µM.

In test [1] (at 50 µM), `COc1ccc2nc(/N=C(\N)NC(=O)Nc3ccccc3)nc(C)c2c1` had an inhibition of 73.7%. The IC50 in test [2] is 33.8 µM.

In the case of `O=C(CSC1=NCCS1)N1CCN(c2ccc(Cl)cc2)CC1`, the inhibition in test [1] (at 50 µM) stood at 20.7%. For the same compound, the IC50 in test [2] is > 100 µM (inactive).

As to `CN1C(=O)C(O)(CC(=O)c2ccccc2O)c2cc(Br)ccc21` (stereo not given), the inhibition in test [1] (at 0.195 µM) worked out at 17.2%. In addition, in test [2], the IC50 is > 100 µM (inactive).

On to `Cc1nnc(NC(=O)CSc2nnc(Cc3cccn3C)n2-c2ccccc2)s1`, for which the inhibition in test [1] (at 0.781 µM) is 11.8%. In addition, the IC50 in test [2] was > 100 µM (inactive).

In test [1] (at 50 µM), `O=C(N/N=C/c1sc2ccccc2c1O)c1cccc2ccccc12` registered an inhibition of 93.6%. The IC50 in test [2] was 15.2 µM.

`Cn1c2ccccc2c2cc(C(=O)O)ccc21` returned an inhibition in test [1] (at 50 µM) of 23.6%. Also, the IC50 in test [2] is > 100 µM (inactive).

In test [1] (at 50 µM), `CCOC(=O)C(=NCCCN(C)C)NNc1ccc(Br)cc1` displayed an inhibition of 97.4%. In test [2], the IC50 is 5.8 µM.

In turn, `Cc1oc(-c2cccs2)nc1CS(=O)CC(=O)NC1CCCCCC1` (stereo not given) had an inhibition in test [1] (at 6.25 µM) of 18.9%. In addition, the IC50 in test [2] was > 100 µM (inactive).

`CCCc1ccc(OCC(=O)NNC(=S)NC(=O)c2ccco2)cc1` returned an inhibition in test [1] (at 50 µM) of 98.8%. Besides, in test [2], the IC50 was 10.6 µM.

`O=C(O)c1ccc2c3c(ncnc13)-c1ccccc1C2=O` yielded an inhibition in test [1] (at 50 µM) of 98.6%. For the same compound, in test [2], the concentration for half-maximal inhibition (IC50) was 5.54 µM.

In test [1] (at 25 µM), `Cc1cc(=O)[nH]c(SCc2nc3ccccc3s2)n1` registered an inhibition of 13%. Besides, the IC50 in test [2] was > 100 µM (inactive).

For `O=C(Nc1ccc(Cl)cc1)ON=C1CCCC1`, the inhibition in test [1] (at 25 µM) amounted to 99.4%. The IC50 in test [2] was 7.46 µM.

`CCOC(=O)C(=NC(C)CC)NNc1ccc(Br)cc1` (stereo not given) returned an inhibition in test [1] (at 50 µM) of 97.4%. In addition, the IC50 in test [2] is 4.03 µM.

On to `Cc1cc(N/N=C/c2ccc(Cl)cc2Cl)nc(NCc2ccccc2)n1`, for which the inhibition in test [1] (at 50 µM) was found to be 99.2%. In test [2], the IC50 was 31.7 µM.

For the compound `CCc1oc2ccccc2c1C(=O)c1cc(Br)c(O)c(Br)c1`, the inhibition in test [1] (at 50 µM) was 87.7%. Further, the IC50 in test [2] was 36.1 µM.

Consider `Cn1cccc1C(=O)Nc1nc(-c2ccccn2)cs1`, for which the inhibition in test [1] (at 50 µM) is 97.9%. Further, the IC50 in test [2] is 22.5 µM.

Take `O=C(O)c1cc2ccc3ccccc3c2oc1=O`: the inhibition in test [1] (at 50 µM) was 64.3%. In addition, the IC50 in test [2] was 32 µM.

`Cc1ccc(/C(N)=N/OC(=O)c2ccc(Cl)cc2Cl)cc1` had an inhibition in test [1] (at 50 µM) of 98.8%. The IC50 in test [2] is 19.8 µM.

`CCCCOc1ccc(C(=O)NNC(=S)NC(=O)CC)cc1` had an inhibition in test [1] (at 50 µM) of 81.6%. Further, in test [2], the IC50 is 24.8 µM.
